We go through one compound from patent publication US20100197584A1, “USE OF CURCUMIN TO BLOCK BRAIN TUMOR FORMATION IN MICE” (Research Foundations of the City University of- New York, priority 2007, published 2010).

One assay relates to phospho-NF-κB. Kind of assay: Western blot of B16F10 cells, phospho-NF-κB. Type of assay: cell-based, mouse. Conditions: 50 μM (FIG. 9). As for the experimental part:
B16F10 cells were cultured in 10-cm plates and then treated in duplicate with carrier or curcumin (50 μM). Following treatment for appropriate time periods, the cells were washed with PBS, lysed in RIPA buffer (PBS containing 1% Nonidet P40, 0.5% sodium deoxycholate, 0.1% SDS, 0.5 mM Na3VO4 plus freshly added PMSF and protease inhibitor cocktail; Boeringer-Roche), and then 20 μg of lysate protein (per lane) were analyzed by SDS-10% PAGE and Western blot analysis. Antibody concentrations used were: anti-phospho-NF-κB (1:1000) (Santa Cruz Biotechnology, Santa Cruz, Calif.), anti-phospho-Akt (1:5000) (Cell Signaling, CA), anti-cyclin D1 (1:1000) (Cell Signaling, CA), anti-BclXL (1:500) (Santa Cruz Biotechnology), anti-VEGF (1:500) (Santa Cruz Biotechnology), and anti-β-actin (1:1000) (Sigma, St. Louis, Mo.).

Assay [1] deals with B16F10 (mouse melanoma) cells. Kind of assay: Caspase-3/7 assay in B16F10 cells. Type of assay: cell-based. The following applies: 20 μM and 50 μM, 48 h or 96 h (FIG. 1). The procedure:
Cells. B16F10 (mouse melanoma), GL261 (mouse glioma), HOG (human oligodendroglioma), A549 (human lung cancer), and […] (mouse neuroblastoma) cells were cultured separately in DMEM containing 10% (v/v) fetal bovine serum and 1% (v/v) penicillin-streptomycin (PS) and allowed to grow to 40% confluence in a 96-well plate. Curcumin Treatment. Two hours before drug treatment, the medium in each well was replaced with 200 μl Neurobasal medium supplemented with 2% (v/v) B27 and 1% (v/v) PS (Drug-treatment Medium). A stock solution (40 mM) of curcumin was prepared in sterile dimethyl sulfoxide (DMSO) (Example 1). Through serial dilution of each stock solution in Drug-treatment Medium, the following concentrations were obtained: 20 μM and 50 μM (for caspase 3/7 assays) or 25 μM and 50 μM (for MTT assays). Drug-treatment Medium in each well was aspirated, and a drug solution of each concentration or carrier-containing medium (control) was added to triplicate wells of cells (50 μl/well). […] Additionally, the background absorbance was determined from parallel wells containing only the Drug-treatment Medium plus a particular concentration of the drug (no cells). […] Fluorescence in each well was measured using the FLx 800 plate reader (Bio-Tek Instruments, Winooski, Vt.) set at 485/20 nm excitation and 528/20 nm emission wavelengths and the sensitivity of 70. […]

Take `COc1cc(/C=C/C(=O)CC(=O)/C=C/c2ccc(O)c(OC)c2)ccc1O` [curcumin]: the “phospho-NF-κB (Western blot)” value in the assay with phospho-NF-κB is “suppression”. Also, the caspase-3/7 activity result in assay [1] is “increased”.
